ChEMBL document CHEMBL4428093, “One pot Click chemistry: A three component reaction for the synthesis of 2-mercaptobenzimidazole linked coumarinyl triazoles as anti-tubercular agents” (2016)
In brackets after ≈: the same amount, converted by molar mass.

Test system: Mycobacterium tuberculosis
Experiment: Antituberculosis activity against Mycobacterium tuberculosis H37Rv after 5 days by MABA method
Assay type: functional
Details: 120 h

Question: Which MIC does the source give for `O=c1cc(Cn2cc(CSc3nc4ccccc4[nH]3)nn2)c2ccc3ccccc3c2o1` here?
Answer: The MIC was 28.4 µM (≈ 12.5 µg/mL).

Question: How did the MIC turn out when `O=c1cc(Cn2cc(CSc3nc4ccccc4[nH]3)nn2)c2ccc(Cl)cc2o1` was run?
Answer: Its MIC is 7.3 µM (≈ 3.09 µg/mL).

Question: Which MIC does the source give for `COc1ccc2oc(=O)cc(Cn3cc(CSc4nc5ccccc5[nH]4)nn3)c2c1` here?
Answer: Its MIC is 29.8 µM (≈ 12.5 µg/mL).

Question: `Cc1cccc2c(Cn3cc(CSc4nc5ccccc5[nH]4)nn3)cc(=O)[nH]c12` was tested. Which MIC did it give?
Answer: Its MIC is 7.7 µM (≈ 3.1 µg/mL).

Question: With `Cc1ccc2oc(=O)cc(Cn3cc(CSc4nc5ccccc5[nH]4)nn3)c2c1` as the compound, how does the MIC read?
Answer: The MIC was 7.7 µM (≈ 3.11 µg/mL).

Question: Which MIC does the source give for `O=c1cc(Cn2cc(CSc3nc4ccccc4[nH]3)nn2)c2ccccc2[nH]1` here?
Answer: Its MIC is 32.2 µM (≈ 12.5 µg/mL).

Question: How did the MIC turn out when `O=c1cc(Cn2cc(CSc3nc4ccccc4[nH]3)nn2)c2cc(Cl)ccc2[nH]1` was run?
Answer: Its MIC is 29.6 µM (≈ 12.5 µg/mL).

Question: With `Cc1cc(C)c2c(Cn3cc(CSc4nc5ccccc5[nH]4)nn3)cc(=O)oc2c1` as the compound, how does the MIC read?
Answer: The MIC was 3.8 µM (≈ 1.59 µg/mL).

Question: `O=c1cc(Cn2cc(CSc3nc4ccccc4[nH]3)nn2)c2ccc(Cl)cc2[nH]1` was tested. Which MIC did it give?
Answer: The MIC was 14.8 µM (≈ 6.26 µg/mL).

Question: With `Cc1ccc2c(Cn3cc(CSc4nc5ccccc5[nH]4)nn3)cc(=O)oc2c1C` as the compound, how does the MIC read?
Answer: Its MIC is 3.8 µM (≈ 1.59 µg/mL).

Question: Which MIC does the source give for `COc1ccc2c(Cn3cc(CSc4nc5ccccc5[nH]4)nn3)cc(=O)oc2c1` here?
Answer: Its MIC is 59.6 µM (≈ 25 µg/mL).

Question: How did the MIC turn out when `O=c1cc(Cn2cc(CSc3nc4ccccc4[nH]3)nn2)c2ccc(O)cc2o1` was run?
Answer: Its MIC is 30.8 µM (≈ 12.5 µg/mL).

Question: `Cc1ccc2c(Cn3cc(CSc4nc5ccccc5[nH]4)nn3)cc(=O)oc2c1` was tested. Which MIC did it give?
Answer: Its MIC is 7.7 µM (≈ 3.11 µg/mL).

Question: With `O=c1cc(Cn2cc(CSc3nc4ccccc4[nH]3)nn2)c2c(ccc3ccccc32)o1` as the compound, how does the MIC read?
Answer: The MIC was 14.2 µM (≈ 6.24 µg/mL).

Question: With `O=C(O)c1cn(C2CC2)c2cc(N3CCNCC3)c(F)cc2c1=O` [CIPROFLOXACIN] as the compound, how does the MIC read?
Answer: Its MIC is 9.4 µM (≈ 3.11 µg/mL).

Question: How did the MIC turn out when `NC(=O)c1cnccn1` [PYRAZINAMIDE] was run?
Answer: The MIC was 25.3 µM (≈ 3.11 µg/mL).

Question: `CN[C@@H]1[C@H](O[C@H]2[C@H](O[C@H]3[C@H](O)[C@@H](O)[C@H](N=C(N)N)[C@@H](O)[C@@H]3N=C(N)N)O[C@@H](C)[C@]2(O)C=O)O[C@@H](CO)[C@H](O)[C@H]1O` [STREPTOMYCIN] was tested. Which MIC did it give?
Answer: Its MIC is 10.7 µM (≈ 6.22 µg/mL).

Test system: Mycobacterium tuberculosis
Experiment: Potency index, ratio of streptomycin MIC to compound MIC for Mycobacterium tuberculosis H37Rv
Assay type: functional
Details: not given

Question: With `Cc1cc(C)c2c(Cn3cc(CSc4nc5ccccc5[nH]4)nn3)cc(=O)oc2c1` as the compound, how does the Ratio read?
Answer: The Ratio was 3.

Question: Which Ratio does the source give for `Cc1ccc2c(Cn3cc(CSc4nc5ccccc5[nH]4)nn3)cc(=O)oc2c1C` here?
Answer: The Ratio was 3.
